Measurements from US20260365692A1, “COMPOSITIONS COMPRISING PROTEINS DISSOLVED IN FLUORINATED SOLVENTS, AND METHODS OF MAKING AND USING THE SAME” (priority 2022, published 2026).

What was measured:
urease = experiment: Circular dichroism with PFNA, urease
Description: FIGS. 14A-14L depict circular dichroism spectra of Hb (FIG. 14A), GFP (FIG. 14B), BSA (FIG. 14C), β-Gal (FIG. 14D), rabbit serum IgG (FIG. 14E), transferrin (FIG. 14F), and urease (FIG. 14G) in the absence (black line) or presence (dashed lines) of PFNA. Increasing dash sequence indicated higher concentration of PFNA. FIG. 14H: Change in molar ellipticity at 216 nm (Δθ216) of PFNA-treated proteins, relative to native controls, as a function of increasing ligand concentration. FIG. 14I: Percentage change in secondary structural motifs of Hb, β-Gal and IgG between the native protein and 1 mM PFNA treated samples. β-sheet structures were further differentiated into parallel and antiparallel conformations. Hb, β-Gal and IgG were prioritized for analysis based on their significant spectral shift in the presence of 1 mM PFNA. FIGS. 14J-14L: Sensograms for BSA (FIG. 14J), β-gal (FIG. 14K), and IgG (FIG. 14L) showing relative response (R.U.) at 10, 25, 50, 75, and 100 μM.
To explore PFNA-mediated changes in protein structure, dose-response circular dichroism (CD) studies were performed (FIG. 14A-14G). […] Remarkably, these structural changes endured even at sub-stoichiometric PFNA:protein ratios (see 0.001 mM PFNA in […]; protein concentration was constant at 0.01 mM).

A549 cells [1] = experiment: Protein uptake in A549 cells, GFP; format: cell-based, human; settings: PFNA, 24-hour exposure
Method: FIGS. 17A-17B depict the uptake of GFP in human lung A549 cells after 2 and 24 hours of incubation in the absence/presence of PFNA. Results are shown in relative fluorescence units (RFU).
(§1) Multiplexed in vitro assays were employed to probe the influence of PFNA interactions on protein uptake and transport in cells. A549 and PC9 human lung cells were prioritized for these assays given that pulmonary tissue is a primary site of perfluoroalkyl bioaccumulation in humans (Reference: 63). Before initiating experiments, cellular toxicity assays established a maximum tolerated dose of PFNA to avoid confounding protein transport experiments with substantive cell death. Protein uptake was then studied using green fluorescent protein (GFP) and bovine serum albumin (BSACy5) as model biologics that employ non-specific pinocytic mechanisms for cellular entry.

A549 cells [2] = experiment: Protein uptake in A549 cells, Texas Red-labeled Transferrin; format: cell-based, human; settings: PFNA, 24 hours of incubation
Method: FIGS. 19A-19B depicts the uptake of Texas Red-labeled Transferrin in human lung A549 cells after 2 and 24 hours of incubation in the absence/presence of PFNA. Results are shown in relative fluorescence units (RFU).
as §1

[3] = Acute toxicity of β-Gal formulations in mice (Example 4); format: in vivo, C57BL/6J mice; settings: 24 h
Method: FIG. 56 depicts serologic toxicology results from C57BL/6J mice 24 hours after administration of saline (control), β-GalSaline or β-GalExt. PFOc. Data shown as box and whisker plot±s.d. of n=5 technical replicates. Statistical significance determined using Student's t-test and represented as * p<0.05; all other comparisons were found not to be significant (p>0.05).
Finally, to assess the potential for acute toxicity of the fluorous dispersant, serologic chemistry analysis and histology was performed 24 hours after treating mice with β-Gal delivered from saline or PFOc extractions. […] Reduction of this marker can indicate a transient impairment of kidney and/or liver function.

[4] = β-Gal delivered from PFOc vs saline

## O=C(O)C(F)(F)C(F)(F)C(F)(F)C(F)(F)C(F)(F)C(F)(F)C(F)(F)C(F)(F)F [Compound 7, perfluoronanonic acid]
urease
  CD structural profile, urease: remained largely unchanged
A549 cells [1]
  uptake of GFP: nominal increase in uptake
A549 cells [2]
  increase in cellular fluorescence (Transferrin uptake) compared to native protein: 43%

## β-Gal: β-Galactosidase (β-Gal), dissolved in PBS/saline or dispersed in PFOc
[3]; kidney, liver, lung, spleen
  histologic analysis of vital organs: did not identify pathologic signs of necrosis, cellular infiltration, inflammation, or hemorrhage
[3]; [4]
  albumin/globulin (ALB/GLOB) ratio: statistically significant reduction
  other renal (CREA, BUN, TP) and hepatic (ALT, AST, ALKP) markers: absence of statistically significant changes
